ChEMBL document CHEMBL3045168, “Thiamethoxam acts as a target-site synergist of spinosad in resistant strains of Frankliniella occidentalis” (2013)
Converted amounts (≈) assume the structure as drawn.

Assays:
[1] = test system: Frankliniella occidentalis; test: Resistance factor, LC50 for Frankliniella occidentalis PPP (western flower thrips) to LC50 for Frankliniella occidentalis TFR; format: functional
[2] = test system: Frankliniella occidentalis; test: Resistance factor, LC50 for Frankliniella occidentalis R1S (western flower thrips) to LC50 for Frankliniella occidentalis TFR; format: functional
[3] = test system: Frankliniella occidentalis; test: Insecticidal activity against Frankliniella occidentalis TFB (western flower thrips) in compound treated sweet pepper leaf assessed as mortality at 25 +/- 2 degC by leaf dip method; format: functional; details: in Capsicum annuum, foliar
[4] = test system: Frankliniella occidentalis; test: Insecticidal activity against Frankliniella occidentalis PPP (western flower thrips) in compound treated sweet pepper leaf assessed as mortality at 25 +/- 2 degC by leaf dip method; format: functional; details: in Capsicum annuum, foliar
[5] = test system: Frankliniella occidentalis; test: Insecticidal activity against Frankliniella occidentalis R1S (western flower thrips) in compound treated sweet pepper leaf assessed as mortality at 25 +/- 2 degC by leaf dip method; format: functional; details: in Capsicum annuum, foliar
[6] = test system: Frankliniella occidentalis; test: Insecticidal activity against Frankliniella occidentalis TFB (western flower thrips) in compound treated sweet pepper leaf assessed as mortality at 150 mg/l at 25 +/- 2 degC by leaf dip method; format: functional; details: in Capsicum annuum, foliar
[7] = test system: Frankliniella occidentalis; test: Insecticidal activity against Frankliniella occidentalis SPI5 (western flower thrips) in compound treated sweet pepper leaf assessed as mortality at 150 mg/l at 25 +/- 2 degC by leaf dip method; format: functional; details: SPI5, in Capsicum annuum, foliar
[8] = test system: Frankliniella occidentalis; test: Insecticidal activity against Frankliniella occidentalis R1 (western flower thrips) in compound treated sweet pepper leaf assessed as mortality at 150 mg/l at 25 +/- 2 degC by leaf dip method; format: functional; details: R1, in Capsicum annuum, foliar
[9] = test system: Frankliniella occidentalis; test: Insecticidal activity against Frankliniella occidentalis TFA (western flower thrips) in compound treated sweet pepper leaf assessed as mortality at 150 mg/l at 25 +/- 2 degC by leaf dip method; format: functional; details: in Capsicum annuum, foliar
[10] = test system: Frankliniella occidentalis; test: Insecticidal activity against Frankliniella occidentalis R1S (western flower thrips) in compound treated sweet pepper leaf assessed as mortality at 1000 mg/l at 25 +/- 2 degC by leaf dip method; details: in Capsicum annuum, foliar
[11] = test system: Frankliniella occidentalis; test: Insecticidal activity against Frankliniella occidentalis TFA (western flower thrips) in compound treated sweet pepper leaf assessed as mortality at 216 mg/l at 25 +/- 2 degC by leaf dip method; format: functional; details: in Capsicum annuum, foliar
[12] = test system: Frankliniella occidentalis; test: Insecticidal activity against Frankliniella occidentalis TFB (western flower thrips) in compound treated sweet pepper leaf assessed as mortality at 216 mg/l at 25 +/- 2 degC by leaf dip method; format: functional; details: in Capsicum annuum, foliar
[13] = test system: Frankliniella occidentalis; test: Insecticidal activity against Frankliniella occidentalis R1 (western flower thrips) in compound treated sweet pepper leaf assessed as mortality at 216 mg/l at 25 +/- 2 degC by leaf dip method; format: functional; details: R1, in Capsicum annuum, foliar
[14] = test system: Frankliniella occidentalis; test: Insecticidal activity against Frankliniella occidentalis SPI5 (western flower thrips) in compound treated sweet pepper leaf assessed as mortality at 216 mg/l at 25 +/- 2 degC by leaf dip method; format: functional; details: SPI5, in Capsicum annuum, foliar
[15] = test system: Frankliniella occidentalis; test: Insecticidal activity against Frankliniella occidentalis R1S (western flower thrips) in compound treated sweet pepper leaf assessed as mortality at 50 mg/l at 25 +/- 2 degC by leaf dip method; format: functional; details: in Capsicum annuum, foliar
[16] = test system: Frankliniella occidentalis; test: Insecticidal activity against Frankliniella occidentalis R1 (western flower thrips) in compound treated sweet pepper leaf assessed as mortality at 50 mg/l at 25 +/- 2 degC by leaf dip method; format: functional; details: R1, in Capsicum annuum, foliar
[17] = test system: Frankliniella occidentalis; test: Insecticidal activity against Frankliniella occidentalis SPI5 (western flower thrips) in compound treated sweet pepper leaf assessed as mortality at 50 mg/l at 25 +/- 2 degC by leaf dip method; format: functional; details: SPI5, in Capsicum annuum, foliar
[18] = test system: Frankliniella occidentalis; test: Insecticidal activity against Frankliniella occidentalis TFB (western flower thrips) in compound treated sweet pepper leaf assessed as mortality at 50 mg/l at 25 +/- 2 degC by leaf dip method; format: functional; details: in Capsicum annuum, foliar
[19] = test system: Frankliniella occidentalis; test: Insecticidal activity against Frankliniella occidentalis TFA (western flower thrips) in compound treated sweet pepper leaf assessed as mortality at 50 mg/l at 25 +/- 2 degC by leaf dip method; format: functional; details: in Capsicum annuum, foliar
[20] = test system: Frankliniella occidentalis; test: Resistance factor, LC50 for Frankliniella occidentalis MOJO (western flower thrips) to LC50 for Frankliniella occidentalis TF; format: functional
[21] = test system: Frankliniella occidentalis; test: Insecticidal activity against Frankliniella occidentalis MOJO (western flower thrips) in compound treated sweet pepper leaf assessed as mortality at 25 +/- 2 degC by leaf dip method; format: functional; details: in Capsicum annuum, foliar
[22] = test system: Frankliniella occidentalis; test: Insecticidal activity against Frankliniella occidentalis TF (western flower thrips) in compound treated sweet pepper leaf assessed as mortality at 25 +/- 2 degC by leaf dip method; format: functional; details: in Capsicum annuum, foliar
[23] = test system: Frankliniella occidentalis; test: Resistance factor, LC50 for Frankliniella occidentalis R1S (western flower thrips) to LC50 for Frankliniella occidentalis TF; format: functional

C/C(=N\C#N)N(C)Cc1ccc(Cl)nc1 [ACETAMIPRID]
RatioLC50 [1]: 0.2
RatioLC50 [2]: 0.2
LC50 [3]: 663 µg/mL (≈ 2980 µM)
LC50 [4]: 116 µg/mL (≈ 521 µM)
LC50 [5]: 119 µg/mL (≈ 534 µM)

O=[N+]([O-])/N=C1\NCCN1Cc1ccc(Cl)nc1 [IMIDACLOPRID]
mortality at 150 µg/mL [6]: 3.3%
mortality at 150 µg/mL [7]: 0%
mortality at 150 µg/mL [8]: 10%
mortality at 150 µg/mL [9]: 6.7%

CCCCOCCOCCOCc1cc2c(cc1CCC)OCO2 [PIPERONYL BUTOXIDE]
mortality at 1000 µg/mL [10]: 10%

N#C/N=C1\SCCN1Cc1ccc(Cl)nc1 [THIACLOPRID]
mortality at 216 µg/mL [11]: 3.3%
mortality at 216 µg/mL [12]: 10%
mortality at 216 µg/mL [13]: 0%
mortality at 216 µg/mL [14]: 3.3%

CN1COCN(Cc2cnc(Cl)s2)/C1=N\[N+](=O)[O-] [THIAMETHOXAM]
mortality at 50 µg/mL [15]: 0%
mortality at 50 µg/mL [16]: 16.7%
mortality at 50 µg/mL [17]: 13.3%
mortality at 50 µg/mL [18]: 20%
mortality at 50 µg/mL [19]: 10%
RatioLC50 [20]: 1
LC50 [21]: 209 µg/mL (≈ 717 µM)
RatioLC50 [1]: 4.8
LC50 [22]: 158 µg/mL (≈ 541 µM)
RatioLC50 [2]: 0.8
LC50 [3]: 352 µg/mL (≈ 1210 µM)
LC50 [4]: 1670 µg/mL (≈ 5740 µM)
LC50 [5]: 298 µg/mL (≈ 1020 µM)
RatioLC50 [23]: 3
